Assay results taken from the CheMixHub viscosity set.

Assay: xn = mol fraction of the nth substance listed

CCCCNCCCC + CCCCCCCO
viscosity [mPa·s], 101.33 kPa
Settings	x1 = 0.0975	x1 = 0.197	x1 = 0.2901	x1 = 0.3789	x1 = 0.4808	x1 = 0.5861	x1 = 0.685	x1 = 0.7862	x1 = 0.8807
303.15 K	4.226	3.629	3.099	2.63	2.15	1.741	1.432	1.171	0.9696
313.15 K	3.151	2.716	2.337	2.013	1.685	1.393	1.169	0.9814	0.8316

COCCO + CCCCCCCO
viscosity [mPa·s], 101 kPa
Settings	x1 = 0.1451	x1 = 0.2763	x1 = 0.3956	x1 = 0.5044	x1 = 0.6043	x1 = 0.6961	x1 = 0.7808	x1 = 0.8593	x1 = 0.9322
298.15 K	4.92	3.963	3.336	2.889	2.551	2.252	2.054	1.852	1.79
308.15 K	3.116	2.561	2.23	1.936	1.753	1.592	1.489	1.341	1.247
318.15 K	2.496	2.203	1.906	1.611	1.487	1.455	1.465	1.142	1.095

CCCCNCCCC + CCCCCCO
viscosity [mPa·s], 101.33 kPa
Settings	x1 = 0.1034	x1 = 0.1705	x1 = 0.2901	x1 = 0.3817	x1 = 0.5001	x1 = 0.5958	x1 = 0.6955	x1 = 0.7942	x1 = 0.9007
303.15 K	3.304	2.992	2.495	2.156	1.776	1.52	1.277	1.088	0.9036
313.15 K	2.723	2.473	2.069	1.792	1.475	1.265	1.088	0.9214	0.7818

COCCO + CCCCCCO
viscosity [mPa·s], 101 kPa
Settings	x1 = 0.1298	x1 = 0.2513	x1 = 0.3653	x1 = 0.4723	x1 = 0.5731	x1 = 0.6682	x1 = 0.758	x1 = 0.843	x1 = 0.9236
298.15 K	3.765	3.225	2.811	2.458	2.25	2.076	1.94	1.815	1.707
308.15 K	2.612	2.233	2.027	1.815	1.667	1.487	1.356	1.303	1.273
318.15 K	2.193	1.908	1.648	1.477	1.356	1.278	1.211	1.129	1.083

CCCCNCCCC + CCCCCO
viscosity [mPa·s], 101.33 kPa
Settings	x1 = 0.0971	x1 = 0.2014	x1 = 0.3007	x1 = 0.4003	x1 = 0.5004	x1 = 0.5841	x1 = 0.6901	x1 = 0.7836	x1 = 0.8845
303.15 K	2.493	2.178	1.913	1.676	1.473	1.319	1.142	1.006	0.8804
313.15 K	2.078	1.814	1.601	1.41	1.241	1.116	0.9767	0.8701	0.7633

COCCO + CCCCCO
viscosity [mPa·s]
Settings	298.15 K	308.15 K	318.15 K
101 kPa, x1 = 0.114	2.939	2.12	1.659
101 kPa, x1 = 0.2246	2.569	1.894	1.525
101 kPa, x1 = 0.3317	2.346	1.724	1.427
101 kPa, x1 = 0.4357	2.155	1.543	1.279
101 kPa, x1 = 0.5367	2.007	1.442	1.234
101 kPa, x1 = 0.6347	1.894	1.413	1.222
101 kPa, x1 = 0.7299	1.8	1.306	1.208
101 kPa, x1 = 0.8225	1.72	1.254	1.035
101 kPa, x1 = 0.9125	1.686	1.249	1.036
101.33 kPa, x1 = 0.1741	–	1.966	–
101.33 kPa, x1 = 0.2604	–	1.804	–
101.33 kPa, x1 = 0.3455	–	1.665	–
101.33 kPa, x1 = 0.4796	–	1.511	–
101.33 kPa, x1 = 0.6102	–	1.385	–
101.33 kPa, x1 = 0.7245	–	1.309	–
101.33 kPa, x1 = 0.78	–	1.284	–
101.33 kPa, x1 = 0.9014	–	1.23	–

OC(c1ccccc1)c1ccccc1 + CCCCCOC(C)=O
Settings	viscosity [mPa·s]
298.15 K, 101 kPa, x2 = 0.5	1.496

CCCCBr + CCCCO
viscosity [mPa·s], 101.33 kPa
Settings	x2 = 0.1114	x2 = 0.2168	x2 = 0.3241	x2 = 0.4255	x2 = 0.5172	x2 = 0.6158	x2 = 0.7127	x2 = 0.7911	x2 = 0.8968
298.15 K	0.63	0.685	0.759	0.86	0.983	1.158	1.394	1.636	2.046
308.15 K	0.554	0.588	0.638	0.706	0.793	0.918	1.086	1.261	1.581
318.15 K	0.495	0.522	0.561	0.613	0.679	0.771	0.899	1.029	1.264

CCCCNCCCC + CCCCO
Settings	viscosity [mPa·s]
298.15 K, 101.33 kPa, x1 = 0.0635	2.402
298.15 K, 101.33 kPa, x1 = 0.1073	2.317
298.15 K, 101.33 kPa, x1 = 0.1494	2.223
298.15 K, 101.33 kPa, x1 = 0.2108	2.071
298.15 K, 101.33 kPa, x1 = 0.2648	1.932
298.15 K, 101.33 kPa, x1 = 0.3259	1.78
298.15 K, 101.33 kPa, x1 = 0.3973	1.606
298.15 K, 101.33 kPa, x1 = 0.4697	1.447
298.15 K, 101.33 kPa, x1 = 0.5484	1.303
298.15 K, 101.33 kPa, x1 = 0.6286	1.172
298.15 K, 101.33 kPa, x1 = 0.7575	1.015
298.15 K, 101.33 kPa, x1 = 0.8182	0.962
298.15 K, 101.33 kPa, x1 = 0.8572	0.927
298.15 K, 101.33 kPa, x1 = 0.8972	0.888
298.15 K, 101.33 kPa, x1 = 0.923	0.883
303.15 K, 101 kPa, x1 = 0.01155	2.23
303.15 K, 101 kPa, x1 = 0.01803	2.213
303.15 K, 101 kPa, x1 = 0.02448	2.198
303.15 K, 101 kPa, x1 = 0.03423	2.177
303.15 K, 101 kPa, x1 = 0.04155	2.163
303.15 K, 101 kPa, x1 = 0.04858	2.15
303.15 K, 101 kPa, x1 = 0.05659	2.134
303.15 K, 101 kPa, x1 = 0.06332	2.12
303.15 K, 101 kPa, x1 = 0.1014	2.031
303.15 K, 101.33 kPa, x1 = 0.0951	2.122
303.15 K, 101.33 kPa, x1 = 0.1888	1.923
303.15 K, 101.33 kPa, x1 = 0.2886	1.712
303.15 K, 101.33 kPa, x1 = 0.3967	1.507
303.15 K, 101.33 kPa, x1 = 0.4924	1.34
303.15 K, 101.33 kPa, x1 = 0.5903	1.201
303.15 K, 101.33 kPa, x1 = 0.6884	1.078
303.15 K, 101.33 kPa, x1 = 0.7951	0.96
303.15 K, 101.33 kPa, x1 = 0.8941	0.8638
308.15 K, 101.33 kPa, x1 = 0.0635	1.828
308.15 K, 101.33 kPa, x1 = 0.1073	1.767
308.15 K, 101.33 kPa, x1 = 0.1494	1.698
308.15 K, 101.33 kPa, x1 = 0.2108	1.588
308.15 K, 101.33 kPa, x1 = 0.2648	1.485
308.15 K, 101.33 kPa, x1 = 0.3259	1.377
308.15 K, 101.33 kPa, x1 = 0.3973	1.255
308.15 K, 101.33 kPa, x1 = 0.4697	1.145
308.15 K, 101.33 kPa, x1 = 0.5484	1.042
308.15 K, 101.33 kPa, x1 = 0.6286	0.952
308.15 K, 101.33 kPa, x1 = 0.7575	0.841
308.15 K, 101.33 kPa, x1 = 0.8182	0.801
308.15 K, 101.33 kPa, x1 = 0.8572	0.776
308.15 K, 101.33 kPa, x1 = 0.8972	0.753
308.15 K, 101.33 kPa, x1 = 0.923	0.739
313.15 K, 101.33 kPa, x1 = 0.0951	1.68
313.15 K, 101.33 kPa, x1 = 0.1888	1.532
313.15 K, 101.33 kPa, x1 = 0.2886	1.38
313.15 K, 101.33 kPa, x1 = 0.3967	1.225
313.15 K, 101.33 kPa, x1 = 0.4924	1.106
313.15 K, 101.33 kPa, x1 = 0.5903	0.9976
313.15 K, 101.33 kPa, x1 = 0.6884	0.9063
313.15 K, 101.33 kPa, x1 = 0.7951	0.8105
313.15 K, 101.33 kPa, x1 = 0.8941	0.7369
318.15 K, 101.33 kPa, x1 = 0.0635	1.441
318.15 K, 101.33 kPa, x1 = 0.1073	1.395
318.15 K, 101.33 kPa, x1 = 0.1494	1.344
318.15 K, 101.33 kPa, x1 = 0.2108	1.263
318.15 K, 101.33 kPa, x1 = 0.2648	1.188
318.15 K, 101.33 kPa, x1 = 0.3259	1.108
318.15 K, 101.33 kPa, x1 = 0.3973	1.018
318.15 K, 101.33 kPa, x1 = 0.4697	0.938
318.15 K, 101.33 kPa, x1 = 0.5484	0.864
318.15 K, 101.33 kPa, x1 = 0.6286	0.798
318.15 K, 101.33 kPa, x1 = 0.7575	0.717
318.15 K, 101.33 kPa, x1 = 0.8182	0.687
318.15 K, 101.33 kPa, x1 = 0.8572	0.669
318.15 K, 101.33 kPa, x1 = 0.8972	0.65
318.15 K, 101.33 kPa, x1 = 0.923	0.642
